According to US20170306042A1, “IMMUNOGENIC MODULATION BY ENDOCRINE DEPRIVATION THERAPY IMPROVES SENSITIVITY OF TUMOR CELLS TO IMMUNE MEDIATED LYSIS” (The United States of America, as represented by the …, priority 2014, published 2017):

Tests used:
[1] = system: LNCaP (AR+, HLA-A2) cells; assay: Cell proliferation and viability by trypan blue exclusion, LNCaP; type: cell-based, human; settings: 10 μM
Description: (§1) Cells were harvested 24, 48, or 72 h after exposure, and the total number of adherent viable cells was determined by trypan blue exclusion. Viability was confirmed by 7AAD staining.

[2] = system: PC-3 (AR−, HLA-A24) cells; assay: Cell proliferation and viability by trypan blue exclusion, PC-3; type: cell-based, human; settings: 10 μM
Description: as §1

LNCaP cells [3] = assay: Apoptosis PCR array (96 genes) in LNCaP cells; type: cell-based, human
Description: The properties of ADT that induce immunogenic modulation and sensitize prostate tumor cells to immune-mediated attack are novel and have not been previously described. It was hypothesized that modulation of apoptotic genes might be part of the mechanism of action of ADT-induced CTL sensitization. […] In particular, gene expression was assessed using an apoptosis PCR array (SA Biosciences, Valencia, Calif.) as per the manufacturer's instructions. RT-PCR was performed on the 7300 Real-Time PCR System (Applied Biosystems, Carlsbad, Calif.). Where indicated, values were calculated as expression relative to GAPDH, as previously described (Ardiani et al., Cancer Res., 74(7): 1945-1957 (2014))

NAIP [4] = assay: NAIP immunohistochemistry in LNCaP xenografts in nude mice; type: in vivo; settings: 10 mg/day, 7 days
From the text: (§2) To examine the reduced expression of NAIP in vivo, either LNCaP or PC-3 cells were transplanted into […] nude mice (Charles River, Wilmington, Mass.) (s.c. in the right flank with 5×10^6 LNCaP or PC-3 prostate tumor cells). […] After 7 days of treatment, tumors were subjected to immunohistochemistry staining to detect the presence and intensity of NAIP expression. Specifically, NAIP expression was detected via immunohistochemistry using a rabbit polyclonal antibody to NAIP (Novus Bio, Littleton, Colo.) according to the manufacturer's instructions. Entire slides were digitally scanned by an Aperio ScanScope CS system and analyzed by Aperio ImageScope Viewer software (Aperio Technologies Inc., Vista, Calif.). Statistical analysis was performed using 3-7 murine tumors, each prepared as a complete stained tumor section. Positive tumor regions were determined using the Positive Pixel Count v9 algorithm. Negative controls included omission of primary antibody with PBS and matched rabbit isotype antibody. In all cases, necrotic areas of tumor were excluded from analysis.

NAIP [5] = assay: NAIP immunohistochemistry in PC-3 xenografts in nude mice; type: in vivo; settings: 10 mg/day, 7 days
From the text: as §2

LNCaP cells [6] = assay: CEA- or PSA-specific CD8+ T-cell killing, LNCaP targets; type: cell-based, human; settings: 10 μM, 48 hours, P<0.01
BT549 (ER−AR+) cells = assay: CEA-specific CTL lysis assay, BT549 targets; type: cell-based, human; settings: 10 μM, E:T 30:1, vs vehicle, P<0.01
Description: (§3) The HLA-A2-restricted CEA-specific CTL recognizes the CEA peptide epitope […] (SEQ ID NO: 1) (CAP-1). […] The percentage of tumor lysis was calculated as follows: % tumor lysis=[(experimental cpm−spontaneous cpm)/(maximum cpm−spontaneous cpm)]×100.

[7] = system: MDA MB 231 (ER−AR−) cells; assay: CEA-specific CTL lysis assay, MDA MB 231 targets; type: cell-based, human; settings: 10 μM, E:T 30:1, vs vehicle
Description: as §3
(§4) OPG expression was inhibited in MDA MB 231 cells using siRNA duplexes targeting OPG sequences and control siRNA duplexes (Origene, Rockville, Md.). MDA-MB-231 cells were transfected with OPG or control siRNA according to the manufacturer's instructions. […] Forty-eight hours post siRNA transfection, the MDA MB 231 cells were also used as target cells in CEA-specific CTL and TRAIL-mediated lysis assays as described.
These cells were then used as target cells for CTL-mediated killing assays utilizing CEA-specific CTLs.

OPG = assay: ELISA of secreted OPG, MDA MB 231 cells; type: cell-based, human; settings: 10 μM, 48 hours, P<0.05
Description: ELISA was performed on combined supernatant samples taken following 24 and 48 hours of treatment.
as §4

[8] = system: LNCaP control-shRNA (AR+, HLA-A2) cells; settings: 10 μM; P<0.01
[9] = system: LNCaP AR-shRNA (AR−, HLA-A2) cells; settings: 10 μM
BT549 cells = settings: 10 μM, 48 hours
Description: (§5) After 48 hours, cells were harvested and stained with the following antibodies: HLA A2-PE-Cy7, MUC-1-FITC, CD54-BV421, CD95-FITC (BD Biosciences, San Jose, Calif.), CEA-APC (Miltenyi Biotec, Auburn, Calif.), TRAIL receptor 1 and TRAIL receptor 2 (R & D Systems, Minneapolis, Minn.). LIVE/DEAD Fixable Violet Dead Cell Stain (Life Technologies, Grand Island, N.Y.) was used to determine cell viability. Cells were incubated with the antibodies for 30 min at 4° C., acquired on a FACS Verse flow cytometer (Becton Dickinson, Franklin Lakes, N.J.), and analyzed using FlowJo software (TreeStar, Inc., Ashland, Oreg.).

MDA MB 231 cells = settings: 10 μM, 48 hours
Description: as §5

[10] = system: castration resistant prostate cancer; settings: AFFIRM trial (Scher et al. 2012); cited from earlier work
[11] = trypan blue exclusion after 3 days of drug exposure
[12] = apoptosis PCR array, negative = down-regulated

Substance: enzalutamide
- viability of LNCaP cells [1, 11]: Neither enzalutamide nor abiraterone affected the viability
- growth / proliferation of LNCaP cells ([1]; vs vehicle (DMSO), P<0.01): significantly inhibited the growth
- viability of PC-3 cells [2, 11]: Neither enzalutamide nor abiraterone affected the viability
- proliferation of PC-3 cells ([2]; vs vehicle (DMSO)): did not inhibit the proliferation
- CASP1 (Caspase 1) gene expression change (LNCaP cells [3]; [12]): −2.17 fold
- CASP5 gene expression change (LNCaP cells [3]; [12]): −3.50 fold
- CASP8 gene expression change (LNCaP cells [3]; [12]): −2.96 fold
- CD27 gene expression change (LNCaP cells [3]; [12]): −2.26 fold
- DAPK1 gene expression change (LNCaP cells [3]; [12]): −6.53 fold
- HRK gene expression change (LNCaP cells [3]; [12]): −2.86 fold
- NAIP gene expression change (LNCaP cells [3]; [12]): −13.90 fold
- TNFRSF25 (DR3) gene expression change (LNCaP cells [3]; [12]): −3.70 fold
- TNFSF8 gene expression change (LNCaP cells [3]; [12]): −3.50 fold
- DAPK1 down-regulated (LNCaP cells [3]; rounded from Table 1): 6.5 fold
- NAIP down-regulated (LNCaP cells [3]; rounded from Table 1): 14 fold
- NAIP staining in LNCaP tumors vs untreated mice (NAIP [4]; immunohistochemistry): much less intense staining
- decrease of overall population of tumor cells expressing NAIP (NAIP [4]; LNCaP xenografts, P<0.01): 1.5 fold
- increase in tumor area that did not express NAIP (NAIP [4]; LNCaP xenografts, P<0.01): 2.2 fold
- NAIP expression in PC-3 tumors vs untreated (NAIP [5]): did not mediate significant changes in NAIP expression
- sensitivity to T-cell killing (LNCaP cells [6]): significantly improved the cells' sensitivity
- sensitivity to CEA-specific CTL-mediated lysis (BT549 (ER−AR+) cells): significantly improved their sensitivity
- sensitivity to CEA-specific CTL-mediated lysis [7]: capable of increasing the sensitivity
- amount of secreted OPG (OPG): reduced the amount of OPG
- proliferation of LNCaP control-shRNA [8]: significantly inhibited the proliferation
- growth of LNCaP AR-shRNA [9]: did not affect the growth
- cell-surface markers with increased expression (BT549 cells; BT549 (ER−AR+)): upregulated the expression of ICAM-1 as well as Trail receptors 1 and 2 and the tumor associated antigen CEA
- CEA mean fluorescence intensity (BT549 cells; BT549): 3443
- CEA percent positivity (BT549 cells; BT549): 15.3%
- Fas mean fluorescence intensity (BT549 cells; BT549): 566
- Fas percent positivity (BT549 cells; BT549): 15.8%
- HLA A2 mean fluorescence intensity (BT549 cells; BT549): 2532
- HLA A2 percent positivity (BT549 cells; BT549): 87.6%
- ICAM-1 mean fluorescence intensity (BT549 cells; BT549): 6239
- ICAM-1 percent positivity (BT549 cells; BT549): 26.1%
- MUC-1 mean fluorescence intensity (BT549 cells; BT549): 930
- MUC-1 percent positivity (BT549 cells; BT549): 25.5%
- Trail R1 mean fluorescence intensity (BT549 cells; BT549): 562
- Trail R1 percent positivity (BT549 cells; BT549): 23.6%
- cell-surface markers with increased expression (MDA MB 231 cells; MDA MB 231 (ER−AR−)): upregulated CEA, ICAM-1 and Trail receptors 1/2
- CEA mean fluorescence intensity (MDA MB 231 cells; MDA MB 231): 626
- CEA percent positivity (MDA MB 231 cells; MDA MB 231): 9.7%
- Fas mean fluorescence intensity (MDA MB 231 cells; MDA MB 231): 375
- Fas percent positivity (MDA MB 231 cells; MDA MB 231): 9.0%
- HLA A2 mean fluorescence intensity (MDA MB 231 cells; MDA MB 231): 21175
- HLA A2 percent positivity (MDA MB 231 cells; MDA MB 231): 96.4%
- ICAM-1 mean fluorescence intensity (MDA MB 231 cells; MDA MB 231): 7254
- ICAM-1 percent positivity (MDA MB 231 cells; MDA MB 231): 95.3%
- MUC-1 mean fluorescence intensity (MDA MB 231 cells; MDA MB 231): 503
- Trail R1 mean fluorescence intensity (MDA MB 231 cells; MDA MB 231): 1125
- Trail R1 percent positivity (MDA MB 231 cells; MDA MB 231): 19.2%
- Trail R2 mean fluorescence intensity (MDA MB 231 cells; MDA MB 231): 1516
- advantage in overall survival compared to placebo [10]: 4.8 month
